Source: patent US20110117166A1, “IMPLANTABLE BONE GRAFT MATERIALS” (AFFINERGY, INC., priority 2009, published 2011)
Ends that are not written are not given here.

What was measured:
[1] = target: T1, BMP-2 (Homo sapiens, UniProt P12643); test: ELISA of BMP-2 bound to biotinylated peptides immobilized on streptavidin plates; format: binding; settings: FIG. 14A; BMP-2 200 nM, 20 nM and 2 nM, 45 minutes
T1 sequence (P12643 283-396): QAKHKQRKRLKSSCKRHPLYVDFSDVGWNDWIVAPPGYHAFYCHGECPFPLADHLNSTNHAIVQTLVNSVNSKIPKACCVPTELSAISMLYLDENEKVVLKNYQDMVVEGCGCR
Protocol: BMP binding peptides SEQ ID NOs:1-4 & 8-10 were identified as described in US Patent Application Publication No. US20060051395A1. Briefly, the peptides were identified by phage display using immobilized BMP-2 as a substrate for the phage library selections. Synthetic peptides SEQ ID NOs: 1-2 were determined to bind to BMP-2 with a relative EC50 value of 0.8 nM and 0.9 nM, respectively (data not shown). Separately, the relative binding affinity of peptides SEQ ID NOs: 1-2 for BMP-2 is shown in FIG. 14A (SEQ ID NO: 1 is denoted as P9 and SEQ ID NO: 2 is denoted as P10). Briefly, the results shown in FIG. 14A were generated by immobilizing biotinylated BMP binding peptides SEQ ID NOs:1 & 2 on streptavidin coated plates. Serial dilutions of 200 nM, 20 nM and 2 nM of BMP-2 were incubated with the immobilized BMP binding peptides for 45 minutes, washed, and bound BMP quantified using ELISA.

[2] = test system: rat calvarial defect; test: Rat calvarial defect model of bone healing (μCT and histology); format: in vivo; settings: conclusion from saline-hydrated groups
Protocol: The ability of each of the bone void filler collagen/TCP composites (unmodified and BMP binding peptide modified at 5-15 μmol peptide/g collagen described in Example 5) to speed bone healing was assessed in a rat calvarial defect model. A defect was introduced into male Sprague Dawley rats (n=8) as described previously (Poehling, et. al, J Periodontol, 2006, 77:1582-90). A full thickness circular defect, 6.8 mm in diameter, was made in the parietal bone, centered across the midline. The disc of bone was removed, and the void was filled with bone graft substitute material hydrated with or without BMA harvested from the tibia (saline was used for hydration without BMA). […] The calvaria were removed and analyzed by micro-computed tomography (μCT) to provide measurements of bone density (SCANCO MEDICAL; Wayne, Pa.). […] For each sample, 6 sections evenly distributed across the defect were scored by two independent observers, blind to the treatment groups. The slides were scored for osteogenic cellular activity, new bone area, and new bone maturity according to the following procedure. For osteogenic cellular activity, fibroblasts/loose connective tissue, immature cartilage progenitors, immature bone progenitors, giant cells, osteoclasts, osteoblasts, and osteocytes were counted and scored according to the following scale: 1=Rare; 2=Few; 3=Moderate; and 4=Dense. […]

[3] = target: T2, BMP-7 (Homo sapiens, UniProt P18075); test: ELISA of BMP-7 bound to immobilized BMP binding peptides; settings: FIG. 14B
T2 sequence (P18075 293-431): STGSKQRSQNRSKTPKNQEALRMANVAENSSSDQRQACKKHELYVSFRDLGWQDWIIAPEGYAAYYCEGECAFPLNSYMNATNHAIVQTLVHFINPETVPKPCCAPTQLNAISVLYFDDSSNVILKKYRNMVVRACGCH

[4] = test system: C2C12 cells; test: Alkaline phosphatase secretion by C2C12 cells in response to BMP-2 with BMP binding peptide in solution; format: cell-based; settings: peptide 0-3500 nM, 3 days, FIG. 16
Protocol: In an experiment to test the biological activity of BMP-2 delivered by BMP binding peptide, alkaline phosphatase secreted by C2C12 cells in response to BMP-2 was measured in the presence and absence of BMP binding peptide in solution. C2C12 cells were incubated with BMP-2 (35 nM) and BMP binding peptide at a concentration ranging from 0-3500 nM. The C2C12 cells were incubated with the BMP-2 and BMP binding peptide for 3 days and the alkaline phosphatase assay was performed as described herein above.

| Substance | relative affinity for BMP-2 [1] | bioactivity of the peptide itself in bone formation [2] | relative affinity for BMP-7 [3] | effect on BMP-2 biological activity (alkaline phosphatase secretion) ([4]; BMP-2 35 nM) | BMP-2 activity of the peptide on its own (alkaline phosphatase secretion) [4] |
| --- | --- | --- | --- | --- | --- |
| GGALGFPLKGEVVEGWA-NH2 (C-terminus assumed) [SEQ ID NO: 2] | high relative affinity | does not possess bioactivity itself | high relative affinity | does not interfere with the biological activity of BMP-2 | does not have BMP-2 activity on its own |
| GGGAWEAFSSLSGSRV-NH2 (C-terminus assumed) [SEQ ID NO: 1] | high relative affinity |  | high relative affinity |  |  |
